Test results published in patent US20110172296A1, “MODULATION OF TRANSFORMING GROWTH FACTOR-BETA 1 EXPRESSION” (priority 2010, published 2011).
Values joined by “and” are separate entries in the source; they are usually repeats but may differ in a detail not shown here. Equal values may be shown once. In the oligonucleotide strings, read from the 5' end, every base follows the letter of its sugar. An asterisk marks phosphorothioate; unmarked linkages are phosphodiester. Other units and linkages are bracketed, terminal groups are in braces. A string of capitals states the bases alone. e = 2'-O-(2-methoxyethyl) (MOE); [5mC] = 5-methylcytosine; d = 2'-deoxy (DNA)

Tested on: human TGF-beta1 mRNA
Assay: Antisense inhibition of human TGF-beta1 mRNA in HuVEC cells, single 10 nM dose, Lipofectamine 2000 (Example 2)
Assay type: cell-based
Conditions: for % inhibition: 10 nM oligonucleotide, HuVEC, relative to untreated control cells, gapmers targeted to SEQ ID NO: 2; for inhibition of a TGF-beta1 mRNA: threshold lists of Oligo IDs, 10 nM
Procedure: Antisense oligonucleotides targeted to a TGF-beta1 nucleic acid were tested for their effects on TGF-beta1 mRNA in vitro. Cultured HuVEC cells at a density of 5,000 cells per well were transfected using Lipofectamine™ 2000 reagent with 10 nM antisense oligonucleotide for 4 hours. After a recovery period of approximately 24 hours, RNA was isolated from the cells and TGF-beta1 mRNA levels were measured by quantitative real-time PCR. TGF-beta1 mRNA levels were adjusted according to total RNA content, as measured by RIBOGREEN®. Results are presented as percent inhibition of TGF-beta1, relative to untreated control cells.
The chimeric antisense oligonucleotides in Tables 1 and 2 were designed as 2-13-5 MOE gapmers. Antisense molecules with this motif targeting TGF-beta1 are unique, and represent a novel chemical structure for an ASO directed against this target. The gapmers are 20 nucleotides in length, wherein the central gap segments are comprised of thirteen 2′-deoxynucleotides and are flanked on the 5′ side by wings comprising two nucleotides each and on the 3′ side by wings comprising five nucleotides each. Each nucleotide in the 5′ wing segment and each nucleotide in the 3′ wing segment has a 2′-MOE modification. The internucleoside linkages throughout each gapmer are phosphorothioate (P═S) linkages. All cytosine residues throughout each gapmer are 5-methylcytosines. “Target start site” indicates the 5′-most nucleotide to which the gapmer is targeted. “Target stop site” indicates the 3′-most nucleotide to which the gapmer is targeted. Each gapmer listed in Table 1 is targeted to SEQ ID NO: 1 (GENBANK Accession No. NM_000660.3). Each gapmer listed in Table 2 is targeted to SEQ ID NO: 2 (GENBANK Accession No. NT 011109.15 truncated from 14103000 to […]).

Row | Substance | % inhibition | inhibition of a TGF-beta1 mRNA
1 | 414045 (antisense eA*eG*d[5mC]*d[5mC]*dA*dG*dT*dT*dT*d[5mC]*dT*dT*d[5mC]*dT*dG*e[5mC]*e[5mC]*eA*eG*eT) [compound 414045] | 80% | 60% and 65% and 70% and 75% and 80%
2 | 414046 (antisense eG*eT*dG*dA*dA*dA*d[5mC]*dA*d[5mC]*d[5mC]*dG*dA*dG*dG*dA*e[5mC]*eA*e[5mC]*e[5mC]*eT) [compound 414046] | 67% | 60% and 65%
3 | 414047 (antisense e[5mC]*e[5mC]*dT*dG*d[5mC]*d[5mC]*d[5mC]*d[5mC]*dT*dT*dG*dG*dT*dG*dG*eA*eA*eG*e[5mC]*eG) [compound 414047] | 41% | –
4 | 414048 (antisense eG*eG*dT*dT*dT*d[5mC]*d[5mC]*d[5mC]*d[5mC]*dA*dG*d[5mC]*d[5mC]*dA*d[5mC]*e[5mC]*e[5mC]*eT*eG*eA) [compound 414048] | 61% | 60%
5 | 414049 (antisense e[5mC]*eT*dG*dA*dG*dT*dG*dG*dG*dA*dG*d[5mC]*d[5mC]*d[5mC]*d[5mC]*eG*e[5mC]*e[5mC]*e[5mC]*eG) [compound 414049] | 53% | –
6 | 414050 (antisense eT*eT*d[5mC]*d[5mC]*d[5mC]*d[5mC]*dA*dA*dG*dG*d[5mC]*dT*d[5mC]*dT*dG*eA*eA*e[5mC]*e[5mC]*eA) [compound 414050] | 82% | 60% and 65% and 70% and 75% and 80%
7 | 414051 (antisense eG*eT*d[5mC]*dA*dG*dT*dG*dT*dT*dA*dA*dA*dG*dG*dA*eA*e[5mC]*e[5mC]*eT*e[5mC]) [compound 414051] | 36% | –
8 | 414052 (antisense eA*e[5mC]*dA*d[5mC]*dA*dT*dG*dT*dG*d[5mC]*dA*dT*dT*dT*dG*eT*eT*eG*eG*eG) [compound 414052] | 52% | –
9 | 414053 (antisense eT*eT*dG*dG*d[5mC]*d[5mC]*d[5mC]*dG*dG*dA*dG*dG*dT*dT*dA*e[5mC]*eT*e[5mC]*eA*eG) [compound 414053] | 52% | –
10 | 414054 (antisense eT*eG*dA*dA*dG*dT*dT*d[5mC]*dA*dT*dT*d[5mC]*dT*dG*dG*eG*eT*eA*eG*eG) [compound 414054] | 51% | –
11 | 414055 (antisense eA*eT*dT*dA*dG*dT*dT*dT*dT*d[5mC]*d[5mC]*dA*d[5mC]*d[5mC]*d[5mC]*eT*eT*eA*eA*e[5mC]) [compound 414055] | 53% | –
12 | 414056 (antisense eT*eT*dA*dT*dA*d[5mC]*d[5mC]*d[5mC]*dG*dT*dT*dT*dA*dA*dT*eA*eG*eA*eT*eG) [compound 414056] | 41% | –
13 | 414057 (antisense eT*eA*d[5mC]*dA*d[5mC]*dT*dG*dG*dT*d[5mC]*dA*d[5mC]*dT*d[5mC]*dA*eA*eT*e[5mC]*eA*eT) [compound 414057] | 58% | –
14 | 414059 (antisense e[5mC]*eA*dA*dG*dA*d[5mC]*dA*dG*dA*dG*dT*dG*dA*d[5mC]*dT*e[5mC]*eT*eA*eG*eA) [compound 414059] | 66% | 60% and 65%
15 | 414060 (antisense eA*e[5mC]*dA*dG*d[5mC]*dA*dA*dT*dA*dA*d[5mC]*dA*dT*dT*dA*eA*eG*e[5mC]*eT*e[5mC]) [compound 414060] | 31% | –
16 | 414061 (antisense eT*eG*dT*dG*dT*dG*dA*d[5mC]*d[5mC]*dA*dT*dG*dG*dG*d[5mC]*eA*eG*eT*eT*eA) [compound 414061] | 69% | 60% and 65%
17 | 414062 (antisense e[5mC]*e[5mC]*d[5mC]*d[5mC]*dT*dA*dA*dA*dA*dT*dG*d[5mC]*dA*dG*dA*eG*eT*eA*eA*eG) [compound 414062] | 72% | 60% and 65% and 70%
18 | 414063 (antisense eA*eA*dG*dT*d[5mC]*dG*dA*d[5mC]*dT*dA*dA*dG*dG*d[5mC]*dT*eG*eG*e[5mC]*eA*e[5mC]) [compound 414063] | 80% | 60% and 65% and 70% and 75% and 80%
19 | 414064 (antisense eT*eG*dT*dG*dA*d[5mC]*d[5mC]*dT*dT*dG*dA*dG*dG*dA*dA*eG*eT*eG*eG*eT) [compound 414064] | 61% | 60%
20 | 414065 (antisense eA*eA*dA*dT*dG*dA*dA*dG*dG*dG*dA*dG*dG*d[5mC]*dG*eA*eT*e[5mC]*eA*eG) [compound 414065] | 24% | –

Row | Substance | % inhibition | inhibition of a TGF-beta1 mRNA
21 | 414066 (antisense eG*eT*dG*dG*dA*d[5mC]*d[5mC]*dT*dT*dG*dT*dA*dA*d[5mC]*d[5mC]*eA*eG*e[5mC]*e[5mC]*eG) [compound 414066] | 80% | 60% and 65% and 70% and 75% and 80%
22 | 414067 (antisense eT*e[5mC]*d[5mC]*dT*dA*dG*dG*dA*dT*dG*d[5mC]*dA*dA*dA*dG*eA*eG*eT*e[5mC]*eT) [compound 414067] | 71% | 60% and 65% and 70%
23 | 414068 (antisense eT*e[5mC]*dT*dG*d[5mC]*dA*dA*d[5mC]*dA*dT*d[5mC]*d[5mC]*dA*dA*dA*eA*eT*eA*eG*eT) [compound 414068] | 53% | –
24 | 414069 (antisense e[5mC]*eT*dA*dT*dG*dA*dG*dT*dT*dA*dA*d[5mC]*dA*dT*dT*e[5mC]*e[5mC]*e[5mC]*eT*e[5mC]) [compound 414069] | 62% | 60%
25 | 414070 (antisense eG*eA*d[5mC]*dT*dA*dA*dT*dG*dT*dT*d[5mC]*dT*dA*dT*dA*eA*eA*e[5mC]*e[5mC]*e[5mC]) [compound 414070] | 54% | –
26 | 414071 (antisense eT*eA*dG*dA*dA*dG*dT*d[5mC]*dA*dT*dT*dT*d[5mC]*dT*dA*eA*eT*eG*eA*eT) [compound 414071] | 0% | –
27 | 414072 (antisense eG*e[5mC]*d[5mC]*dG*dA*dA*dG*dG*dT*dG*dT*dT*dT*dT*d[5mC]*eT*eT*eG*e[5mC]*e[5mC]) [compound 414072] | 48% | –
28 | 414073 (antisense e[5mC]*eT*dT*d[5mC]*d[5mC]*d[5mC]*d[5mC]*dA*dA*dA*d[5mC]*dA*dG*dG*d[5mC]*eT*eT*e[5mC]*e[5mC]*eA) [compound 414073] | 65% | 60% and 65%
29 | 414074 (antisense eA*eA*dG*dT*dG*dA*d[5mC]*d[5mC]*d[5mC]*d[5mC]*dA*dG*dG*dA*d[5mC]*eA*eA*eA*e[5mC]*eA) [compound 414074] | 24% | –
30 | 414075 (antisense eG*eA*dT*dT*dA*dG*d[5mC]*d[5mC]*dA*dA*dT*d[5mC]*dA*d[5mC]*dT*e[5mC]*eA*eG*eG*eT) [compound 414075] | 75% | 60% and 65% and 70% and 75%
31 | 414076 (antisense eG*eT*dT*d[5mC]*d[5mC]*d[5mC]*d[5mC]*dA*dG*d[5mC]*dT*dA*d[5mC]*d[5mC]*dT*eA*eG*e[5mC]*e[5mC]*eA) [compound 414076] | 57% | –
32 | 414077 (antisense eT*e[5mC]*d[5mC]*dA*dG*dG*d[5mC]*d[5mC]*dT*dT*dT*dG*d[5mC]*dA*d[5mC]*eA*eG*eG*e[5mC]*eT) [compound 414077] | 71% | 60% and 65% and 70%
33 | 414078 (antisense eT*eG*dG*dG*d[5mC]*dA*dA*dT*dT*dA*dT*dT*dG*dA*dA*eT*eA*eA*eA*eA) [compound 414078] | 18% | –
34 | 414079 (antisense eG*eT*d[5mC]*dT*dT*dG*dG*dT*dT*dA*dT*d[5mC]*dA*d[5mC]*dT*eA*eT*eG*eT*e[5mC]) [compound 414079] | 62% | 60%
35 | 414080 (antisense eT*eT*dG*dA*d[5mC]*d[5mC]*dA*dA*dG*dA*d[5mC]*dA*dG*dA*dT*eG*eA*eG*e[5mC]*eT) [compound 414080] | 54% | –
36 | 414081 (antisense eG*e[5mC]*dT*dT*dG*dG*dG*dA*d[5mC]*dT*d[5mC]*dA*dG*d[5mC]*dA*eT*eT*eG*eA*e[5mC]) [compound 414081] | 49% | –
37 | 414082 (antisense eG*eA*dG*dA*dG*dG*dG*dA*dA*dG*d[5mC]*d[5mC]*dA*dG*dT*e[5mC]*eT*eG*eA*eG) [compound 414082] | 19% | –
38 | 414083 (antisense eA*eA*d[5mC]*d[5mC]*dT*dG*dG*dA*dG*d[5mC]*dA*d[5mC]*d[5mC]*dT*dG*eG*eT*e[5mC]*eA*eG) [compound 414083] | 42% | –
39 | 414084 (antisense eT*e[5mC]*dA*dG*d[5mC]*d[5mC]*d[5mC]*dA*dA*dG*d[5mC]*dA*d[5mC]*dA*dG*e[5mC]*eA*eG*e[5mC]*eA) [compound 414084] | 75% | 60% and 65% and 70% and 75%
